In US20240277749A1, “NEW FORMULATIONS COMPRISING AZACITIDINE” (NANEXA AB, priority 2021, published 2024):

Tests used:
[1] = clinical; conditions: human, plasma, sc, 100 mg/m2
[2] = standard of care over seven consecutive days by injection or infusions, cited from earlier work

AUC(0-inf) [1]: 1.12 µg·h/mL | Cmax [1]: 0.562 µg/mL | Tmax [1]: 0.433 h | half-life [1]: 6.82 h
Compound: Nc1ncn([C@@H]2O[C@H](CO)[C@@H](O)[C@H]2O)c(=O)n1 [azacitidine, 4-amino-1-®-D-ribofuranosyl-s-triazin-2(1H)-one]
average AUC∞ ([2]; 525 mg/m^2 of BSA): 0.96 ± 0.458 µg·h/mL | average Cmax [2]: 0.75 ± 0.403 µg/mL
